The numbers were not newly measured in US4829051A, “N-substituted derivatives of 1-desaminovasopressin” (Vega Laboratories, Inc., priority 1984, dated 1989), which cites them from elsewhere.

The conditions of this data set: in vivo.

With `NC(=O)CC[C@@H]1NC(=O)[C@H](Cc2ccccc2)NC(=O)[C@H](Cc2ccc(O)cc2)NC(=O)CCSSC[C@@H](C(=O)N2CCC[C@H]2C(=O)N[C@H](CCCN=C(N)N)C(=O)NCC(N)=O)NC(=O)[C@H](CC(N)=O)NC1=O` [desmopressin], the Antidiuretic activity entry was “enhanced and prolonged antidiuretic activity”; the Pressor activity result is “low pressor activity”.
